Results taken from patent US12162864B2, “Condensed-cyclic compound” (Takeda Pharmaceutical Company Limited, priority 2018, dated 2024).

How the values were obtained:
Male SD rats = assay: Rat defecation experiment; format: in vivo; settings: oral, mean±standard error
Procedure: Rat Defecation Experiment
Male SD rats (5-6 weeks old) were used after an acclimation period for about 1 week. A test drug (1 mg/kg or 3 mg/kg) was suspended in 0.5% methylcellulose solution and orally administered at a volume of 5 mL/kg, and the number of feces for 2 hr later was counted. Only 0.5% methylcellulose was administered to a solvent administration group.

MDR1 = target: T1, MDR1 (Homo sapiens, UniProt P08183); assay: MDR1 membrane permeability test; format: in vitro ADME; settings: pH 7.4, human MDR1-expressing LLC-PK1 cells, 10 μmol/L test compound, read-out: Efflux ratio (ER)
T1 construct: expressed in transfected cells
T1 sequence (P08183 whole entry): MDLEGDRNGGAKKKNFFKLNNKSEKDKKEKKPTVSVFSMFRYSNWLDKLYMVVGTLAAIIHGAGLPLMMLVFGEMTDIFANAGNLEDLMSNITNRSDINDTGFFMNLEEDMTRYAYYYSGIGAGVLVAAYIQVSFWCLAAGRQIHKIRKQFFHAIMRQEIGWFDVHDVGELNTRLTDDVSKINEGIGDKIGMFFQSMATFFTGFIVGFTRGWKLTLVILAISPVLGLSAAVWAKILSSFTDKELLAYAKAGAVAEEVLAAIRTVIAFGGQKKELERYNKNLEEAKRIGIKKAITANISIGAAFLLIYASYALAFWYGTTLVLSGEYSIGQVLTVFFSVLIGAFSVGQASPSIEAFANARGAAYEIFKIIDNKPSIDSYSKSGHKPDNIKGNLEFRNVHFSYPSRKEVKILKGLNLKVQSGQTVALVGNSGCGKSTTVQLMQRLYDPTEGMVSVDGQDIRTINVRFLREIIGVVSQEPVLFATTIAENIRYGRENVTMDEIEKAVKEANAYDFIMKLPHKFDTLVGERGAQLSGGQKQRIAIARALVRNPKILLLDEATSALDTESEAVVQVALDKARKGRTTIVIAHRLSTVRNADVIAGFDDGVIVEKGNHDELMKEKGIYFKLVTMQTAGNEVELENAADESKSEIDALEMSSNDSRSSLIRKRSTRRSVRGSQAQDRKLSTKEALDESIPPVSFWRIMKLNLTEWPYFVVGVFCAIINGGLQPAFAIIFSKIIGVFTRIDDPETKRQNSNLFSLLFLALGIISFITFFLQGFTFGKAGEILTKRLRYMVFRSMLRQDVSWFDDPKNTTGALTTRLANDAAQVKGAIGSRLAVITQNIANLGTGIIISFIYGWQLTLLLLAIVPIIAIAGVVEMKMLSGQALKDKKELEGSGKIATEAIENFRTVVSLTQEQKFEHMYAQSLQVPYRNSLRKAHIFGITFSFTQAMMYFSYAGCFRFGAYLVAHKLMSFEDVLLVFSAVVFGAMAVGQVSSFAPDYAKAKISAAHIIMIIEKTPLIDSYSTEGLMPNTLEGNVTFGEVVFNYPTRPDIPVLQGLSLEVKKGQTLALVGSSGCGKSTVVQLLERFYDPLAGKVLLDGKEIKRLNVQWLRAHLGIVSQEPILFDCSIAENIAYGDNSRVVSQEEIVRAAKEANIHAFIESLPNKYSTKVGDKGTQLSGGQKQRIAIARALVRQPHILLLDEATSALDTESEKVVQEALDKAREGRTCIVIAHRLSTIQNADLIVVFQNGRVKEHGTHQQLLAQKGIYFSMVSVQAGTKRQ
Procedure: MDR1 Membrane Permeability Test
When MDR1 is expressed in excess in LLC-PK1 cell, which is a polar cell, MDR1 is localized in apical membrane (A), thus promoting transcellular transport from the basement membrane side (B) toward direction A. When a ratio to the transcellular transport in the opposite direction is taken and a ratio to a control cell in which a mock vector has been introduced is further taken, an efflux ratio of MDR1 to simple diffusion (corrected efflux ratio) is calculated. Similarly, when a brain/plasma concentration ratio in Mdr1(−/−) mouse is divided by a brain/plasma concentration ratio in wild-type mouse, an efflux ratio of Mdr1 to simple diffusion in blood-brain barrier (BBB) (Kp, brain ratio, higher value means lower central nervous system permeability) is calculated. Adachi Y. et al. (Reference 1) has reported a positive correlation between corrected efflux ratio and Kp, brain ratio (FIG. 5(C)), and efflux ratio in MDR1 expressing cell and Kp, brain ratio (FIG. 5(B)).
To confirm the central nervous system permeability of the compounds of the present invention, a MDR1 membrane permeability test was performed by the following method.
Digoxin and lucifer yellow (LY) were purchased from Sigma-Aldrich™, Diclofenac, colchicine and alprenolol were purchased from Wako Pure Chemical Industries, Ltd., and other reagents used were commercially available products of special grade.
Human MDR1-expressing LLC-PK1 cells were cultured according to the report of Takeuchi et al. (Reference 2). Human MDR1-expressing LLC-PK1 cells were cultured in 10% fetal bovine serum (Invitrogen™), 500 μg/ml G418 (Invitrogen™), 150 ng/ml colchicine-containing M199 medium (Invitrogen™) under 5% CO2 conditions at 37° C.
Transcellular transport was performed according to the report of Sugimoto et al. (Reference 3). The cells were cultured for 3 days on HTS Transwell™ (registered trademark) 96 well permeable support (pore size 0.4 μm, 0.143 cm^2 surface area, Corning Life Sciences) having polyethylene terephthalate membrane on which the cells had been seeded at 3.45×10^4 cells/well. After preincubation in M199 medium (containing 10 mmol/L HEPES, 1% BSA, pH 7.4) for 30 min, a drug solution (10 μmol/L digoxin, 200 μmol/L LY, 10 μmol/L test compound) dissolved in M199 medium was added to the apical side or basolateral side of the Transwell™ by 75 or 250 μL each and the cells were cultured under 5% CO2 conditions at 37° C. After 1 hr, the sample was collected from the side opposite to the side where the drug solution was added, and the concentration of the test compound was measured by LC-MS/MS. As an internal standard substance, 100 ng/mL alprenolol and diclofenac were used. The analysis conditions were as follows. • LC: UFLC LC-20 (Shimadzu™) • MS/MS: API4000 (AB Sciex™ Instruments) • LC condition: gradient method
• Column: Unison UK-C18 HT (3.0 μm, 2.0×20 mm) • Column temperature: 50° C. • Flow rate: 0.7 mL/min (for 1.5 min run), 1.0 mL/min (for 1.0 min run) • Mobile phase A: 50 mM CH3COONH4:MeCN:water=1:1:8 • Mobile phase B: 50 mM CH3COONH4:MeCN=1:9 • Injection volume: 1-20 μL
LY was measured by a fluorescence plate reader (Fluoroskan Ascent FL).
Papp, A to B and Papp, B to A (apparent permeability) were calculated from the formula (1), and the efflux ratio (ER) was calculated from the formula (2).
[formula] • Amount: amount of transported digoxin/well • Area: surface area of cell monolayer (0.143 cm^2) • C0: concentration of drug solution added • Time: incubation time

Compound: Cn1cnc(-c2ccc(Cc3cc(C(=O)N[C@H]4CCOC[C@@H]4O)c(F)c4c3OCC4)cc2)c1 [Example 5, 1,5-anhydro-2,3-dideoxy-3-(((4-fluoro-7-(4-(1-methyl-1H-imidazol-4-yl)benzyl)-2,3-dihydro-1-benzofuran-5-yl)carbonyl)amino)-L-threo-pentitol]
- number of feces 2 hr later (Male SD rats; 1 mg/kg): 6.3 ± 0.7
- number of feces 2 hr later (Male SD rats; 3 mg/kg): 8.7 ± 1.2
- efflux ratio at 1 h, 10 μmol/L (MDR1): 7.3

Compound: Cn1cc(-c2ccc(Cc3cc(C(=O)N[C@H]4CCOC[C@@H]4O)c(F)c4c3OCC4)cn2)cn1 [Example 6, 1,5-anhydro-2,3-dideoxy-3-(((4-fluoro-7-((6-(1-methyl-1H-pyrazol-4-yl)pyridin-3-yl)methyl)-2,3-dihydro-1-benzofuran-5-yl)carbonyl)amino)-L-threo-pentitol]
- number of feces 2 hr later (Male SD rats; 1 mg/kg): 6.6 ± 0.9
- efflux ratio at 1 h, 10 μmol/L (MDR1): 18

Compound: COCCNC(=O)c1ccc(Cc2cc(C(=O)N[C@H]3CCOC[C@@H]3O)c(F)c3c2OCC3)cc1F [Example 13, 1,5-anhydro-2,3-dideoxy-3-(((4-fluoro-7-(3-fluoro-4-((2-methoxyethyl)carbamoyl)benzyl)-2,3-dihydro-1-benzofuran-5-yl)carbonyl)amino)-L-threo-pentitol]
- number of feces 2 hr later (Male SD rats; 1 mg/kg): 9.9 ± 1.6
- efflux ratio at 1 h, 10 μmol/L (MDR1): 10

Compound: CCOCCNC(=O)c1ccc(Cc2cc(C(=O)N[C@H]3CCOC[C@@H]3O)c(F)c3c2OCC3)cc1F [Example 14, 1,5-anhydro-2,3-dideoxy-3-(((7-(4-((2-ethoxyethyl)carbamoyl)-3-fluorobenzyl)-4-fluoro-2,3-dihydro-1-benzofuran-5-yl)carbonyl)amino)-L-threo-pentitol]
- number of feces 2 hr later (Male SD rats; 1 mg/kg): 6.8 ± 1.3
- number of feces 2 hr later (Male SD rats; 3 mg/kg): 10.4 ± 1.1
- efflux ratio at 1 h, 10 μmol/L (MDR1): 9.3

Compound: CNC(=O)c1ccc(Cc2cc(C(=O)N[C@H]3CCOC[C@@H]3O)c(OC)c3c2OCC3)cc1F [Example 31, 1,5-anhydro-2,3-dideoxy-3-(((7-(3-fluoro-4-(methylcarbamoyl)benzyl)-4-methoxy-2,3-dihydro-1-benzofuran-5-yl)carbonyl)amino)-L-threo-pentitol]
- number of feces 2 hr later (Male SD rats; 1 mg/kg): 5.9 ± 0.9
- efflux ratio at 1 h, 10 μmol/L (MDR1): 28

Compound: COCCCNC(=O)c1ccc(Cc2cc(C(=O)N[C@H]3CCOC[C@@H]3O)c(OC)c3c2CCC3)cc1F [Example 60, 1,5-anhydro-2,3-dideoxy-3-(((7-(3-fluoro-4-((3-methoxypropyl)carbamoyl)benzyl)-4-methoxy-2,3-dihydro-1H-inden-5-yl)carbonyl)amino)-L-threo-pentitol]
- number of feces 2 hr later (Male SD rats; 1 mg/kg): 6.9 ± 1.2
- number of feces 2 hr later (Male SD rats; 3 mg/kg): 11.4 ± 1.2
- efflux ratio at 1 h, 10 μmol/L (MDR1): 15
